Data taken from PubChem BioAssay AID1963842 (Molecular Pharmacology Branch, DTP, NCI, 2024).

Test system: 677734-321-R-J1-PDC complex spheroid viability
Test: Anticancer human tumor 677734-321-R-J1-PDC patient-derived soft tissue sarcoma cell line growth inhibition [POLQ]
Conditions: for IC50: curve of first compound; for viability, T/C: stronger effect = lower value
How it was run: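 Patient-derived tumour cells were co-cultured with HUVEC and mesenchymal stem cells as multicellular spheroids at 37 °C. They were treated with POLQ inhibitors (novobiocin, ART-558, RP6685) alone or combined with other agents. Top concentrations were at or near clinical Cmax (otherwise 10 microM; SN-38 at 1 microM), decreasing in half-log steps.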

[1] = second compound 0.0316 µM, first compound 0.0316 µM
[2] = second compound 0.0316 µM, first compound 0.1 µM
[3] = second compound 0.0316 µM, first compound 0.316 µM
[4] = second compound 0.0316 µM, first compound 1 µM
[5] = second compound 0.0316 µM, first compound 3.16 µM
[6] = second compound 0.0316 µM, first compound 10 µM
[7] = second compound 0.1 µM, first compound 0.0316 µM
[8] = second compound 0.1 µM, first compound 0.1 µM
[9] = second compound 0.1 µM, first compound 0.316 µM
[10] = second compound 0.1 µM, first compound 1 µM
[11] = second compound 0.1 µM, first compound 3.16 µM
[12] = second compound 0.1 µM, first compound 10 µM
[13] = second compound 0.316 µM, first compound 0.0316 µM
[14] = second compound 0.316 µM, first compound 0.1 µM
[15] = second compound 0.316 µM, first compound 0.316 µM
[16] = second compound 0.316 µM, first compound 1 µM
[17] = second compound 0.316 µM, first compound 3.16 µM
[18] = second compound 0.316 µM, first compound 10 µM
[19] = second compound 1 µM, first compound 0.0316 µM
[20] = second compound 1 µM, first compound 0.1 µM
[21] = second compound 1 µM, first compound 0.316 µM
[22] = second compound 1 µM, first compound 1 µM
[23] = second compound 1 µM, first compound 3.16 µM
[24] = second compound 1 µM, first compound 10 µM
[25] = second compound 3.16 µM, first compound 0.0316 µM
[26] = second compound 3.16 µM, first compound 0.1 µM
[27] = second compound 3.16 µM, first compound 0.316 µM
[28] = second compound 3.16 µM, first compound 1 µM
[29] = second compound 3.16 µM, first compound 3.16 µM
[30] = second compound 3.16 µM, first compound 10 µM
[31] = second compound 10 µM, first compound 0.0316 µM
[32] = second compound 10 µM, first compound 0.1 µM
[33] = second compound 10 µM, first compound 0.316 µM
[34] = second compound 10 µM, first compound 1 µM
[35] = second compound 10 µM, first compound 3.16 µM
[36] = second compound 10 µM, first compound 10 µM
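Also: spheroids exposed to compounds for one week.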
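For viability, T/C in this document: 100% = vehicle DMSO treated spheroids.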

## Nc1ccn(C2OC(CO)C(O)C2(F)F)c(=O)n1 (centres undefined) + Cc1cccc(N(C)C(=O)C2C(O)CCN2c2nc(C)cc(C(F)(F)F)c2C#N)c1
Second compound 0.0316 µM
  IC50: < 0.0316 µM
Second compound 0.1 µM
  IC50: < 0.0316 µM
Second compound 0.316 µM
  IC50: < 0.0316 µM
Second compound 1 µM
  IC50: < 0.0316 µM
Second compound 3.16 µM
  IC50: < 0.0316 µM
Second compound 10 µM
  IC50: < 0.0316 µM
[1]
  viability, T/C: 38.5%
[2]
  viability, T/C: 15.2%
[3]
  viability, T/C: 14.2%
[4]
  viability, T/C: 14.7%
[5]
  viability, T/C: 14.9%
[6]
  viability, T/C: 10.1%
[7]
  viability, T/C: 43.5%
[8]
  viability, T/C: 15.1%
[9]
  viability, T/C: 13.7%
[10]
  viability, T/C: 15.4%
[11]
  viability, T/C: 15.8%
[12]
  viability, T/C: 11%
[13]
  viability, T/C: 31.8%
[14]
  viability, T/C: 22%
[15]
  viability, T/C: 14.1%
[16]
  viability, T/C: 16.9%
[17]
  viability, T/C: 12.4%
[18]
  viability, T/C: 10.8%
[19]
  viability, T/C: 30.9%
[20]
  viability, T/C: 18.4%
[21]
  viability, T/C: 14.3%
[22]
  viability, T/C: 15.4%
[23]
  viability, T/C: 19.6%
[24]
  viability, T/C: 12%
[25]
  viability, T/C: 35.2%
[26]
  viability, T/C: 14.9%
[27]
  viability, T/C: 14.6%
[28]
  viability, T/C: 13.5%
[29]
  viability, T/C: 13.3%
[30]
  viability, T/C: 13%
[31]
  viability, T/C: 39.8%
[32]
  viability, T/C: 17.3%
[33]
  viability, T/C: 15.3%
[34]
  viability, T/C: 13.7%
[35]
  viability, T/C: 13.3%
[36]
  viability, T/C: 12.2%

## O=c1[nH]cc(F)c(=O)[nH]1 + Cc1cccc(N(C)C(=O)C2C(O)CCN2c2nc(C)cc(C(F)(F)F)c2C#N)c1
Second compound 0.0316 µM
  IC50: 5.41 µM
Second compound 0.1 µM
  IC50: 2.94 µM
Second compound 0.316 µM
  IC50: 3.18 µM
Second compound 1 µM
  IC50: 5.91 µM
Second compound 3.16 µM
  IC50: 6.99 µM
Second compound 10 µM
  IC50: 2.89 µM
[1]
  viability, T/C: 104%
[2]
  viability, T/C: 110%
[3]
  viability, T/C: 111%
[4]
  viability, T/C: 93.9%
[5]
  viability, T/C: 54.6%
[6]
  viability, T/C: 44.9%
[7]
  viability, T/C: 107%
[8]
  viability, T/C: 103%
[9]
  viability, T/C: 104%
[10]
  viability, T/C: 76.5%
[11]
  viability, T/C: 49.2%
[12]
  viability, T/C: 44.8%
[13]
  viability, T/C: 112%
[14]
  viability, T/C: 108%
[15]
  viability, T/C: 103%
[16]
  viability, T/C: 97.7%
[17]
  viability, T/C: 49.8%
[18]
  viability, T/C: 47.2%
[19]
  viability, T/C: 104%
[20]
  viability, T/C: 106%
[21]
  viability, T/C: 108%
[22]
  viability, T/C: 90.9%
[23]
  viability, T/C: 55.9%
[24]
  viability, T/C: 45.1%
[25]
  viability, T/C: 108%
[26]
  viability, T/C: 105%
[27]
  viability, T/C: 112%
[28]
  viability, T/C: 101%
[29]
  viability, T/C: 54.3%
[30]
  viability, T/C: 48%
[31]
  viability, T/C: 104%
[32]
  viability, T/C: 99.3%
[33]
  viability, T/C: 105%
[34]
  viability, T/C: 83%
[35]
  viability, T/C: 47.6%
[36]
  viability, T/C: 46.8%
